Source: patent publication US20140322161A1, “ANTI-IL-6 VACCINE COMPOSITION” (PEPTINOV SAS, priority 2011, published 2014)
Bridges are numbered along the chain shown (N, C = ends). BDB = bisdiazonium-benzidine, coupling agent to KLH

Assays:
hIL-6 = hIL-6 (Homo sapiens, UniProt P05231); experiment: ELISA cross-reactivity of sera from OF1 mice immunized with mIL-6-derived peptides, plates covered with human IL-6; assay type: in vivo; conditions: D54 sera diluted 1/500, plates covered with human IL-6
Chain of hIL-6 (P05231 30-212): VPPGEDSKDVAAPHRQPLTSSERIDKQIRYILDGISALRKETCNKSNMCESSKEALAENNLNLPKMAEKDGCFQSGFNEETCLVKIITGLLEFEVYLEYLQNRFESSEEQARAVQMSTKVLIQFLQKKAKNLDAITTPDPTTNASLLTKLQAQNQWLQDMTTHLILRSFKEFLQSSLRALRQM
Description: Six peptides derived from murine IL-6 were chemically synthesized and coupled to a carrier protein, KLH (Keyhole Limpet Hemocyanin), five using the coupling agent bisdiazonium-benzidine (BDB) and one with glutaraldehyde. These peptides were then cyclized by the formation of disulfide bonds between cysteines (added or already present).
For each peptide, Oncins France 1 mice (OF1, Charles River Laboratories, L'Arbresle, France) free from specific pathogenic organisms were immunized by intra-muscular route with 100 μg of peptides derived from murine IL-6 mP1, mP2, mP3, mP4, mP5, and mP6 (see Table 1) in complete Freund's adjuvant (CFA) at the start of the experiment (D0) (n=4 per peptide).
Incomplete Freund's adjuvant (IFA) boosters are then given every 15 days, on D15, D30 and D45. The sera from mice on D54 are tested by ELISA with a 1/500th dilution of the serums on plates covered with murine IL-6 or human IL-6 in order to evaluate their cross-reactivity.

murine IL-6 = biological target: T1, murine IL-6 (Mus musculus, UniProt P08505); experiment: Murine IL-6 neutralization test on murine B9 hybridomas with purified IgGs from immunized rabbits; assay type: cell-based; conditions: purified IgGs from rabbits immunized with the peptide; B9 hybridoma proliferation, XTT
T1 sequence (P08505 25-211): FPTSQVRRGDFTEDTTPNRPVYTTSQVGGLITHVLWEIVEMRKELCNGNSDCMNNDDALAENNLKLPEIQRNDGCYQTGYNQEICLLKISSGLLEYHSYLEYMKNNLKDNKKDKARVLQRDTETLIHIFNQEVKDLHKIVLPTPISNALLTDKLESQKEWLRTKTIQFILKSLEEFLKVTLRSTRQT
Experimental: The neutralizing ability of purified IgGs based on serum from rabbits immunized with the peptides mP1, mP2, mP3, mP4, mP5 and mP6 respectively, was tested in a murine IL-6 neutralization test. This test is based on the fact that murine B9 hybridomas proliferate in a dose-dependent manner in response to murine IL-6 (Brakenhoff et al. (1987) J. Immunol. 139:4116-21).
Plating (D0): seed a flat-bottom 96-well plate, treated for cell culture with 5000 cells per well in 50 μL of neutralization medium. (RPMI 1640 without phenol red, 5% v/v Foetal Calf Serum (FCS), 2 mM L-Glutamine, 100 U/mL Penicillin/Streptomycin, […] of β-Mercaptoethanol)
In parallel a so-called “pre-incubation” plate is produced with the desired concentration of murine IL-6, samples and commercial anti-mIL-6 antibodies used as positive control, all in a final volume of 100 μL of neutralization medium.
The pre-incubation plate is left at 37° C. for 2 hours. 50 μL per well is then transferred to the corresponding wells of the plate containing the cells, then the latter is incubated with 5% CO2 at 37° C. for 96 hours.
Development (D4): Add 50 μL of a solution of XTT (for 2,3-bis-(2-methoxy-4-nitro-5-sulfophenyl)-2H-tetrazolium-5-carboxanilide)—0.5% electron coupling reagent to each well. Leave to incubate at 37° C. for 7 hours. Reading of the optical density on a spectrophotometer set at 450 nm.

C57BL/6 mice = experiment: Murine model of chronic colitis induced by DSS after vaccination; assay type: in vivo
Description: Chronic colitis induced by Dextran Sodium Sulfate (DSS) is a well-known model of chronic inflammatory disease reproducing the main characteristics of the human diseases (Alex et al. (2009) Inflamm. Bowel Dis. 15:341-352).
Briefly, groups of 6 C57BL/6 mice (Charles River Laboratories, L'Arbresle, France) were formed. The mice were immunized 4 times (once with CFA and three times with IFA) every 15 days with different vaccine preparations. The mice were respectively immunized with PBS (DSS/PBS group), 50 μg per mouse of KLH (DSS/KLH group), and 100 μg per mouse of peptide mP1, mP2, mP3, mP4, mP5 and mP6 coupled with KLH (DSS/mIL-6 peptide group). A control H2O group was also included. Four days after the first booster, colitis was induced by absorption of Dextran Sodium Sulfate (DSS) in water (2%) over 7 days followed by 7 days of water. Three DSS/water cycles were thus carried out, after which the mice received water until the end of the protocol. The clinical signs of the disease appear approximately on the fifth day after the start of treatment with DSS (D26 of the protocol). The development of the disease is measured from the start of the first DSS cycle up to the end of the protocol by a disease activity index (DAI) including weight loss, the presence of blood in the stools and the texture of the stools. The clinical scores are determined as follows: for the texture of the stools a score of 0 (hard stools) to 4 (diarrhoea), for the presence of blood in the stools a score of 0 (absence) to 4 (macroscopic blood), and weight loss a score of 0 (<1%) to 4 (>20%). Each mouse is thus assigned a clinical score with a maximum score of 12.
Then, on D67, the mice are killed by cervical dislocation. The histological sections from colon distal biopsies are scored blind, according to the severity of the inflammation (0: absence, 1: slight, 2: moderate, 3: severe), the extent of the inflammation (0: absence, 1: mucosal, 2: mucosal and sub-mucosal, 3: transmural), crypt damage (0: absence, 1: one-third damaged, 2: ⅔ damaged, 3: only the surface of the epithelium intact, 4: total destruction of the crypts and epithelium). Each mouse is thus assigned a histological score with a maximum score of 10.

mIL-6 = biological target: T2, mIL-6 (Mus musculus, UniProt P08505); experiment: ELISA of antibody production against mIL-6 in DBA/2 mice immunized with mP2; assay type: in vivo; conditions: 100 μg cyclized mP2 coupled to KLH, day 54 sera, FIG. 9
T2 sequence (P08505 25-211): T1 sequence (P08505 25-211)
Experimental: (§1) Briefly, three groups of DBA/2 mice (Janvier, France) immunized intramuscularly four times (once in complete Freund's adjuvant (CFA), and three times in incomplete Freund's adjuvant (IFA)) every 15 days with different vaccine preparations: • 8 mice were immunized with 100 μg of the above-described cyclized mP2 peptide coupled to KLH (mP2-Bleo group) and were injected subcutaneously in the back with bleomycin • 6 mice were immunized with 100 μg of mP2 (mP2-Nacl group) and were injected subcutaneously in the back with NaCl (Negative control group) • 8 mice were group immunized with 200 μg of KLH alone (KLH-Bleo group) and were injected subcutaneously in the back with bleomycin. (Positive control group)
(§2) At day 54, the mice were killed. Sera samples were collected and the antibody production against mIL-6 was quantified by ELISA. Furthermore, skin biopsies were performed to evaluate the OH-proline production, indicative of collagen production, and histological sections from the back were also performed to evaluate dermal thickness.

DBA/2 mice = experiment: Murine model of bleomycin-induced systemic sclerosis after vaccination; assay type: in vivo; conditions: for skin fibrosis (OH-proline content of skin biopsies): mP2-immunized, FIG. 10
Description: The murine model of bleomycin-induced systemic sclerosis is a well-known model of chronic inflammatory disease with main features being dermal thickness together with skin and pulmonary fibrosis due to excessive collagen production (Adamson & Bowden (1974) Am. J. Pathol. 77:185-197)
as §1
The inventors also used an additional control group composed of mice injected intraperitoneally with 100 μL (1 mg/mouse) of murine monoclonal anti IL-6 receptor antibody once a week (n=6).
The subcutaneous injections of 100 μL of bleomycin (0.5 mg/mL) were performed three days after the third boost and then every other day during three weeks in order to induce systemic sclerosis.
as §2
The collagen content was measured in the skin biopsy from each mouse by assaying hydroxyproline (OH-proline) content. OH-proline represents about 13% of collagen amino acids and is measured to evaluate collagen production. […] The absorbance is read at 560 nm.
Dermal thickness from histological sections was then measured in a blind way by two independent experts.

Substance: Acetyl+C76MNNDDALAENNLKLPE92C-Y-BDB (Ac-CMNNDDALAENNLKLPECY-{BDB}; disulfide 1-18 (inferred)) [mP2, peptide derived from mIL-6 region 76-92]
- cross-reactivity with the human cytokine (ELISA) (hIL-6): apart from the antibodies directed against the peptide mP2
- neutralization of the biological activity of murine IL-6 (murine IL-6): neutralize the biological activity of murine IL-6 in a dose-dependent manner
- histological colitis score (C57BL/6 mice; D67 colon distal biopsies, compared with control mice treated with PBS or KLH alone, FIG. 3): significantly reduced histological score
- disease activity index (DAI) (C57BL/6 mice; DSS-treated C57BL/6 mice, 100 μg peptide coupled with KLH, compared with the control groups, FIG. 2): significantly reduced disease activity index
- reduction of the length of the colon (C57BL/6 mice; DSS-treated C57BL/6 mice, compared with control mice, FIG. 4): significantly less severe reduction of the colon
- development of antibodies against mIL-6 (ELISA) (mIL-6): developed antibodies against mIL-6
- dermal thickening (histological sections) (DBA/2 mice; bleomycin model, versus mice immunized with KLH only, identical with anti mIL-6 receptor group, FIG. 11): lower dermal thickening
- skin fibrosis (OH-proline content of skin biopsies) (DBA/2 mice; injected subcutaneously with NaCl (negative control group)): did not develop skin fibrosis
- skin fibrosis (OH-proline content of skin biopsies) (DBA/2 mice; injected subcutaneously with bleomycin, same efficacy as anti IL-6 receptor antibody group): protected from the development of fibrosis
